Data as given in PMC10799935, “Discovery of a peripheral 5HT2A antagonist as a clinical candidate for metabolic dysfunction-associated steatohepatitis” (Nature Communications, 2024).
Values joined by “and” are separate entries in the source; they are usually repeats but may differ in a detail not shown here. Identical values can stand only once. Like-named read-outs stand apart in the source and are kept apart here.

Key:
HFD-fed C57BL/6J mice [1] = assay: DIO mice: fasting glucose levels; type: in vivo, mouse; details: PO, in mg/dL (unit assumed)
HFD-fed C57BL/6J mice [2] = assay: DIO mice: body composition (fat and lean mass); type: in vivo, mouse; design: Body Mass RAW Fluid / Body Mass RAW Fat body mass / Body Mass RAW Lean body mass / Fat Body: Mean Diff., Vehicle vs. 11c / Lean Body: Mean Diff., Vehicle vs. 11c: unit not given here; details: for Fat Body: Mean Diff., Vehicle vs. 11c / Lean Body: Mean Diff., Vehicle vs. 11c: Dunnett's test; for Body Mass Analysis (%) Fat body mass / Body Mass Analysis (%) Lean body mass / Body Mass RAW Fat body mass / Body Mass RAW Lean body mass / Body Weight (body mass sheet) / Body Mass Analysis (%) Fluid / Body Mass RAW Fluid: DIO mice, individual mice and group Mean; for Body Weight (body mass sheet): in g (unit assumed)
From the text: For in vivo efficacy in DIO models and CDAHFD models, the experimental protocol for this study was approved by the Institutional Animal Care and Use Committee (IACUC) at the Korea Advanced Institute of Science and Technology (No. KA2023-027-v2) or Kyungpook National University (No. KNU-20200134). All relevant ethical guidelines were followed. C57BL/6 J male mice (11 weeks old) were purchased from the Charles River Japan and were housed in a specific pathogen-free barrier facility under a regular light-dark cycle (12-hour light/12-hour dark) at 24°C with 40–60% humidity. Food (standard chow diet, Envigo, 2018S) and water were provided ad libitum. […] Mice were euthanized by the method of cervical dislocation. The measurement of lean and fat mass in live mice was performed by a body composition analyzer (LF50 BCA-analyzer, Bruker). After 6 h of fasting, mice were sacrificed, and tissue samples were obtained.

[3] = Pharmacokinetic study in dogs; type: in vivo, Beagle dogs; details: dog
Procedure: The experimental protocol for this study was approved by the IACUC of KPC Co., Ltd. (No. KPC IACUC-P203046; Beagle dogs) or QuBEST BIO (No.QBIACUC-A20131). All relevant ethical guidelines were followed. Beagle male dogs (11 ~ 20 months old) were purchased from ORIENT BIO Inc. and were housed in the barrier animal facility of KPC Co., Ltd. under a regular light-dark cycle (12-hour light/12-hour dark) at 21.1–23.4°C with 55.3–72.2% humidity. Food (standard irradiated pelleted commercial laboratory diet, Cargill Agri Purina, 300 g/dog.day) and water were provided ad libitum. All study dogs were returned to the laboratory colony after the study without any euthanasia. Sprague-Dawley male rats (7 weeks old) were purchased from SAMTAKOBIOKOREA, Inc. and were housed in the barrier animal facility of Nonclinical Research Center, QuBEST BIO under a regular light-dark cycle (12-hour light/12-hour dark) at 19.7–22.7°C with 54.5–65.6% humidity. Food (standard irradiated pelleted commercial laboratory diet, Purina Rodent Chow, 38057) and water were provided ad libitum. All study rats were euthanized by CO2 gas upon study completion.
Blood samples were collected at the scheduled times up to 24 h post-dose (IV: 0.083, 0.25, 0.5, 1, 2, 4, 8, 12 and 24 h post-dose, PO: 0.25, 0.5, 1, 2, 4, 8, 12 and 24 h post-dose). Determination of compound 11c in plasma was performed by UHPLC-MS/MS. Pharmacokinetic parameters were calculated by noncompartmental analysis using Phoenix® WinNonlin® (Ver. 8.3‘, Certara).

[4] = In vivo PK with diverse doses (5, 10, 20 mpk) for PK and PD co-relation
Procedure: In this paper, the authors based on their previous studies on 5-HT2A LKO mice and 5HT2A antagonists, try to synthesize a serial of new derivatives based on the compound 2 (Clarinex) to develop oral drug candidates of […]
Then the authors tested the pharmacokinetics of compound 11c both in rats and dogs by iv and gavage administration. Besides, the tissue distribution of compound 11c was also determined by […]
NASH and fibrosis. The following questions may need to be answered by the authors.
Comment 1: In general, after gavage administration for 8 weeks (page 178-179) or 12 weeks (page 274-275), the compound 11c mainly distributed in digestive track especially in intestines with comparatively lower plasma drug concentration as well as in the other organs.
Response: We appreciate the Reviewer’s comment. For most oral drugs, the high level of total radioactivity is often observed in gastrointestinal tract in QWBA (Quantitative Whole Body Autoradiography). In the study of QWBA for compound 11c, tissue distribution was evaluated in multiple time points. Total radioactivities in stomach and small intestine were high at early time points and decreased at late time points. […]

[5] = male, beagle, plasma, 5 mg/kg, IV (5 mpk)
[6] = male, beagle, plasma, 5 mg/kg, PO (5 mpk)

Question: Which “6hr Fasting Glucose Levels, Average 7W” value (HFD-fed C57BL/6J mice [1]; 5mpk, group mean) does the source give for Cc1nc2n(c(=O)c1CCN1CCC(=C3c4ccc(Cl)cc4CCc4cccnc43)CC1)CCCC2O (centres unmarked) [Compound 11c] here?
Answer: 158.2

Question: What about the “6hr Fasting Glucose Levels, Average 7W” value (HFD-fed C57BL/6J mice [1]; 5mpk, individual animals, 5 mg/kg) of the same compound?
Answer: 172.5 and 172.0 and 150.5 and 154.0 and 119.5 and 188.0 and 151.0

Question: And the “6hr Fasting Glucose Levels, Blood Glucose Level” value (HFD-fed C57BL/6J mice [1]; 5mpk, 2021.03.29, duplicate readings of individual animals, 5 mg/kg)?
Answer: 173.0 and 172.0 and 155.0 and 189.0 and 149.0 and 152.0 and 158.0 and 150.0 and 127.0 and 112.0 and 181.0 and 195.0 and 140.0 and 162.0

Question: What about the “6hr Fasting Glucose Levels, Average 7W” value (HFD-fed C57BL/6J mice [1]; 10mpk, group mean) of the same compound?
Answer: 134.9

Question: What about the “6hr Fasting Glucose Levels, Average 7W” value (HFD-fed C57BL/6J mice [1]; 10mpk, individual animals, 10 mg/kg) of the same compound?
Answer: 116.0 and 126.0 and 147.5 and 160.5 and 170.0 and 89.5

Question: And the “6hr Fasting Glucose Levels, Blood Glucose Level” value (HFD-fed C57BL/6J mice [1]; 10mpk, 2021.03.29, duplicate readings of individual animals, 10 mg/kg)?
Answer: 117.0 and 115.0 and 121.0 and 131.0 and 148.0 and 147.0 and 163.0 and 158.0 and 171.0 and 169.0 and 89.0 and 90.0

Question: And the “Fat Body: Mean Diff., Vehicle vs. 11c” value (HFD-fed C57BL/6J mice [2]; 5mpk)?
Answer: 1.897

Question: What about the “Lean Body: Mean Diff., Vehicle vs. 11c” value (HFD-fed C57BL/6J mice [2]; 5mpk) of the same compound?
Answer: 3.43

Question: And the fat mass (HFD-fed C57BL/6J mice [2]; 10 mpk daily oral gavage, 8 weeks, vs vehicle-treated mice)?
Answer: reduced

Question: What about the “Fat Body: Mean Diff., Vehicle vs. 11c” value (HFD-fed C57BL/6J mice [2]; 10mpk) of the same compound?
Answer: 12.76

Question: And the “Lean Body: Mean Diff., Vehicle vs. 11c” value (HFD-fed C57BL/6J mice [2]; 10mpk)?
Answer: 4.653

Question: And the “Body Mass Analysis (%) Fat body mass” value (HFD-fed C57BL/6J mice [2]; 5mpk, 5 mg/kg)?
Answer: 34.69%

Question: What about the “Body Mass Analysis (%) Lean body mass” value (HFD-fed C57BL/6J mice [2]; 5mpk, 5 mg/kg) of the same compound?
Answer: 52.41%

Question: And the “Body Mass Analysis (%) Fat body mass” value (HFD-fed C57BL/6J mice [2]; 5mpk, 5 mg/kg, group mean)?
Answer: 34.7%

Question: What about the “Body Mass Analysis (%) Lean body mass” value (HFD-fed C57BL/6J mice [2]; 5mpk, 5 mg/kg, group mean) of the same compound?
Answer: 52.4%

Question: What about the “Body Mass RAW Fat body mass” value (HFD-fed C57BL/6J mice [2]; 5mpk, 5 mg/kg, group mean) of the same compound?
Answer: 15.9

Question: And the “Body Mass RAW Lean body mass” value (HFD-fed C57BL/6J mice [2]; 5mpk, 5 mg/kg, group mean)?
Answer: 23.8

Question: What about the “Body Weight (body mass sheet)” value (HFD-fed C57BL/6J mice [2]; 5mpk, 5 mg/kg) of the same compound?
Answer: 45.7 and 40.4 and 39.5 and 37 and 43.5 and 51 and 45.4

Question: And the “Body Mass Analysis (%) Fluid” value (HFD-fed C57BL/6J mice [2]; 5mpk, 5 mg/kg, mean)?
Answer: 6.8%

Question: And the “Body Mass RAW Fluid” value (HFD-fed C57BL/6J mice [2]; 5mpk, 5 mg/kg, mean)?
Answer: 3.1

Question: And the “Body Mass Analysis (%) Fat body mass” value (HFD-fed C57BL/6J mice [2]; 5mpk, listed as 11C, 5 mg/kg)?
Answer: 42.9% and 30.1% and 27.5% and 28.0% and 34.3% and 39.1% and 41.1%

Question: And the “Body Mass Analysis (%) Fluid” value (HFD-fed C57BL/6J mice [2]; 5mpk, listed as 11C, 5 mg/kg)?
Answer: 7.2% and 5.5% and 5.6% and 5.7% and 8.1% and 8.2% and 7.4%

Question: What about the “Body Mass Analysis (%) Lean body mass” value (HFD-fed C57BL/6J mice [2]; 5mpk, listed as 11C, 5 mg/kg) of the same compound?
Answer: 50.9% and 41.8% and 44.8% and 51.8% and 63.0% and 63.1% and 51.4%

Question: And the “Body Mass RAW Fat body mass” value (HFD-fed C57BL/6J mice [2]; 5mpk, listed as 11C, 5 mg/kg)?
Answer: 19.5 and 15.6 and 13.7 and 11.6 and 14.0 and 17.9 and 18.8

Question: What about the “Body Mass RAW Fluid” value (HFD-fed C57BL/6J mice [2]; 5mpk, listed as 11C, 5 mg/kg) of the same compound?
Answer: 3.3 and 2.8 and 2.4 and 3.7 and 3.4

Question: What about the “Body Mass RAW Lean body mass” value (HFD-fed C57BL/6J mice [2]; 5mpk, listed as 11C, 5 mg/kg) of the same compound?
Answer: 23.2 and 21.7 and 22.3 and 21.5 and 25.8 and 28.9 and 23.5

Question: And the “Body Mass Analysis (%) Fluid” value (HFD-fed C57BL/6J mice [2]; 10mpk, 10 mg/kg)?
Answer: 7.1% and 5.8% and 4.8% and 8.2% and 9.4%

Question: And the “Body Mass RAW Fat body mass” value (HFD-fed C57BL/6J mice [2]; 10mpk, 10 mg/kg)?
Answer: 8.4 and 13.9 and 12.4 and 15.4 and 9.5 and 5.7

Question: And the “Body Mass RAW Fluid” value (HFD-fed C57BL/6J mice [2]; 10mpk, 10 mg/kg)?
Answer: 3.2 and 3.0 and 2.4 and 3.4 and 3.9 and 2.2

Question: What about the “Body Mass RAW Lean body mass” value (HFD-fed C57BL/6J mice [2]; 10mpk, 10 mg/kg) of the same compound?
Answer: 22.2 and 25.2 and 20.6 and 25.5 and 23.2 and 23.1

Question: And the “Body Mass RAW Lean body mass” value (HFD-fed C57BL/6J mice [2]; 10mpk, 10 mg/kg, group mean)?
Answer: 23.3

Question: What about the “Body Weight (body mass sheet)” value (HFD-fed C57BL/6J mice [2]; 10mpk, 10 mg/kg) of the same compound?
Answer: 35.7 and 43.1 and 36.3 and 45.2 and 38.2 and 33.4

Question: What about the “Body Weight (body mass sheet)” value (HFD-fed C57BL/6J mice [2]; 10mpk, 10 mg/kg, mean) of the same compound?
Answer: 38.7

Question: And the “Body Mass Analysis (%) Fluid” value (HFD-fed C57BL/6J mice [2]; 10mpk, 10 mg/kg, mean)?
Answer: 6.7%

Question: What about the “Body Mass RAW Fat body mass” value (HFD-fed C57BL/6J mice [2]; 10mpk, 10 mg/kg, mean) of the same compound?
Answer: 10.9

Question: And the “V” value ([3]; IV (5 mpk))?
Answer: 4.36 L/kg

Question: What about the bioavailability ([3]; male, beagle, plasma, po, 5 mpk, dogs (summary statement), read-out: oral bioavailability) of the same compound?
Answer: > 60%

Question: And the AUC [3, 5]?
Answer: 16800 ng·h/mL

Question: What about the clearance [3, 5] of the same compound?
Answer: 7 mL/min/kg

Question: What about the half-life [3, 5] of the same compound?
Answer: 8.6 h

Question: What about the AUC [3, 6] of the same compound?
Answer: 19100 ng·h/mL

Question: And the half-life [3, 6]?
Answer: 10.2 h

Question: And the bioavailability ([3]; male, beagle, plasma, 5 mg/kg, PO (5 mpk), read-out: F (%))?
Answer: 73%

Question: What about the “concentration present up to 8 hrs” value [4] of the same compound?
Answer: more than 20 nM and > 10 ng/mL
